# Assay results as given in US20240059725A1, “COUMARIN COMPOUNDS AND A PROCESS FOR PREPARATION THEREOF” (priority 2021, published 2024).
# How the values were obtained:
# [1] = test system: Human colon carcinoma (HCT-116) cell line; assay: Anticancer activity, MTT assay against HCT-116; format: cell-based; conditions: for IC50: Homo sapiens, HCT-116, interpolated from graph (FIG. 5)
# Description: (§1) The anticancer activity of the compound (3) denoted as “P” and compound (4) denoted as “DP” was assessed invitro by MTT 3-(4,5-dimethylthiazol-2-yl)-2,5-diphenyltetrazolium bromide assay against Human colon carcinoma (HCT-116) cell lines and Human breast adenocarcinoma (MDA-MB-468) respectively.
# (§2) RPMI-1640, fetal bovine serum (FBS), penicillin, streptomycin was procured from HiMedia (Mumbai, India). Doxorubicin, MTT 3-(4,5-dimethylthiazol-2-yl)-2,5-diphenyltetrazolium bromide were procured from Sigma Aldrich (USA). The chemicals used were of analytical or HPLC grade. Human breast adenocarcinoma (MDA-MB-468), Human colon carcinoma (HCT-116) was procured from NCCS, Pune, India. The cell line was grown in the RPMI-1640 with 2 mM L-glutamine, supplemented with 10% FBS, penicillin (100 IU/mL) and streptomycin (100 μg/mL) at 37° C. in a 95% humidified CO2 incubator with 5% CO2 atmosphere. The cell lines were passaged twice weekly for maintaining sub-confluent state.
# (§3) MTT assay was used as cell viability assay. The principle of the assay lies in the fact that the MTT is reduced to formazan crystals by mitochondrial dehydrogenase of the viable cells. The anticancer activity of compounds (3) and (4) was assessed invitro by MTT 3-(4,5-dimethylthiazol-2-yl)-2,5-diphenyltetrazolium bromide assay based on the methods by Mosmann, T and Bose et.al. (Mosmann, T. Journal of Immunological methods. 1983, 65, 55-63; and Bose, D. S.; Idrees, M.; Jakka, N. M.; Rao, J. V. J. Comb. Chem. 2010, 12, 100-110). Doxorubicin (DXN) a known anticancer drug was used as a reference compound in the assay. The treated and untreated cells were washed with PBS (Phosphate buffer saline) and MTT (100 μg/ml) was added and incubated at 37° C. for 5 hr. The MTT was then removed, and the formazan crystals were dissolved by adding DMSO. The absorbance at 540 nm represents the viable cells. The absorbance was recorded using Multiskan spectrum, Thermo scientific. […] The absorbance from the untreated cells was defined as 100% viable cells. The % viable cells were plotted (Y-axis) against concentration (X-axis). The IC50 values were interpolated from the graphs of FIGS. 5 and 6.
# [2] = Cytotoxicity MTT assay in HEK 293 cell line; format: cell-based; conditions: human, HEK 293 cells, 48 hr of treatment, read-out: IC-50 value (cytotoxicity)
# Description: Human embryonic kidney HEK 293 cell line were cultured in complete DMEM (Dulbecco's modified eagle medium) high glucose medium with 10% foetal bovine serum and 1% Penicillin Streptomycin and grown at 37° C.in a humidified incubator with 5% CO2. The cells were grown in T-25 flasks till about 80% confluency and 5000cells/well were seeded in a 96 well cell culture plate.
# After 24 hr the cells were treated with all the concentrations of the drug (compound (4)) in triplicates and incubated for 48 hr.
# After 48 hr of incubation MTT was added at a concentration of 0.5 mg/ml and incubated at 37° C. for 4 hr. After 4 hr the media was discarded from each well and DMSO was added. After 30 mins of incubation at 37° C.the colorimetric data was taken at 570 nm.
# RAW 264.7 cells = assay: Flow cytometry analysis of Reactive Oxygen Species production (DCFDA) in LPS induced RAW cell line; format: cell-based; conditions: RAW cell line treated along with LPS, 48 hours
# Description: RAW cell line was cultured in a T 25 flask in DMEM. After the cells reached confluency evel up to 90 percent, they were seeded in 6 well plates at 1 lakh cells/well. After adhesion of cells drugs were treated along with LPS and kept for 48 hours.
# Flow cytometry analysis of Reactive Oxygen Species production on RAW cell line:
# After 48 hr of treatment cells were harvested and stained with DCFDA and run-on flow cytometer.
# HEK cell line = assay: ROS production in HEK cell line; format: cell-based, Human
# [3] = test system: Human breast adenocarcinoma (MDA-MB-468) cell line; assay: Anticancer activity, MTT assay against MDA-MB-468; format: cell-based; conditions: for IC50: Homo sapiens, MDA-MB-468, interpolated from graph (FIG. 6)
# Description: as §1, §2, §3
Structure (SMILES),"Percentage of cell death ([1]; HCT-116, 1.0 μg/mL)","Percentage of cell death ([1]; HCT-116, 2.0 μg/mL)","Percentage of cell death ([1]; HCT-116, 5.0 μg/mL)","Percentage of cell death ([1]; HCT-116, 10.0 μg/mL)","Percentage of cell death ([1]; HCT-116, 25.0 μg/mL)",IC50 [1],IC50 at 48 h [2],ROS production (RAW 264.7 cells),ROS production (HEK cell line),IC50 [3],"Percentage of cell death ([3]; MDA-MB-468, 1.0 μg/mL)","Percentage of cell death ([3]; MDA-MB-468, 2.0 μg/mL)","Percentage of cell death ([3]; MDA-MB-468, 5.0 μg/mL)","Percentage of cell death ([3]; MDA-MB-468, 10.0 μg/mL)","Percentage of cell death ([3]; MDA-MB-468, 25.0 μg/mL)"
CC1(C)OC2OC(COC(=O)c3cc4ccccc4oc3=O)C3OC(C)(C)OC3C2O1 (stereo not drawn) [Compound (3)],25.81 ± 0.015%,44.01 ± 0.028%,61.45 ± 0.006%,75.01 ± 0.076%,88.64 ± 0.018%,3.8 µg/mL,,,,,,,,,
O=C(OCC1OC(O)C(O)C(O)C1O)c1cc2ccccc2oc1=O (stereo not drawn) [Compound (4)],,,,,,,> 1000 µg/mL,able to produce ROS in all concentrations,no ROS production,3.2 µg/mL,25.71 ± 0.003%,42.27 ± 0.026%,66.49 ± 0.007%,78.66 ± 0.018%,86.10 ± 0.015%
"COc1cccc2c1C(=O)c1c(O)c3c(c(O)c1C2=O)C[C@@](O)(C(=O)CO)C[C@@H]3O[C@H]1C[C@H](N)[C@H](O)[C@H](C)O1 [DXN, Doxorubicin, reference compound]",16.12 ± 0.001%,31.68 ± 0.012%,52.34 ± 0.015%,63.76 ± 0.0031%,73.45 ± 0.060%,5 µg/mL,,,,5 µg/mL,16.12 ± 0.001%,31.68 ± 0.012%,52.34 ± 0.015%,63.76 ± 0.0031%,73.45 ± 0.060%
